Source: ChEMBL document CHEMBL1152728, “1-Amido-1-phenyl-3-piperidinylbutanes - CCR5 antagonists for the treatment of HIV. Part 1” (Bioorg Med Chem Lett, 2009)
Active and inactive are the calls of the source. The calls are words filed in the database; no cut-off is given here.

Tests used:
[1] = tested on: Human immunodeficiency virus 1; details: Bal, PM1
Liver microsomes = test: Metabolic stability in human liver microsomes assessed as clearance measured per mg of protein; type: ADME, Microsome
hERG (KCNH2) = hERG (KCNH2) (Homo sapiens, UniProt Q12809); test: in vitro; details: HEK293 cells that express human ERG, probe [3H]dofetilide
Description: Displacement of [3H]dofetilide from human ERG expressed in HEK293 cells at 300 nM

physchem [2] = test: physchem
Description: Dissociation constant, pKa of the compound

physchem [3] = details: buffer, pH 7.4
[4] = tested on: Human immunodeficiency virus 1; test: microbe, parasite or virus in culture; details: Human immunodeficiency virus 1, Bal, PM1
[5] = biological target: Voltage-gated inwardly rectifying potassium channel KCNH2 (Homo sapiens, UniProt Q12809)
Chain of Voltage-gated inwardly rectifying potassium channel KCNH2 (Q12809 whole entry): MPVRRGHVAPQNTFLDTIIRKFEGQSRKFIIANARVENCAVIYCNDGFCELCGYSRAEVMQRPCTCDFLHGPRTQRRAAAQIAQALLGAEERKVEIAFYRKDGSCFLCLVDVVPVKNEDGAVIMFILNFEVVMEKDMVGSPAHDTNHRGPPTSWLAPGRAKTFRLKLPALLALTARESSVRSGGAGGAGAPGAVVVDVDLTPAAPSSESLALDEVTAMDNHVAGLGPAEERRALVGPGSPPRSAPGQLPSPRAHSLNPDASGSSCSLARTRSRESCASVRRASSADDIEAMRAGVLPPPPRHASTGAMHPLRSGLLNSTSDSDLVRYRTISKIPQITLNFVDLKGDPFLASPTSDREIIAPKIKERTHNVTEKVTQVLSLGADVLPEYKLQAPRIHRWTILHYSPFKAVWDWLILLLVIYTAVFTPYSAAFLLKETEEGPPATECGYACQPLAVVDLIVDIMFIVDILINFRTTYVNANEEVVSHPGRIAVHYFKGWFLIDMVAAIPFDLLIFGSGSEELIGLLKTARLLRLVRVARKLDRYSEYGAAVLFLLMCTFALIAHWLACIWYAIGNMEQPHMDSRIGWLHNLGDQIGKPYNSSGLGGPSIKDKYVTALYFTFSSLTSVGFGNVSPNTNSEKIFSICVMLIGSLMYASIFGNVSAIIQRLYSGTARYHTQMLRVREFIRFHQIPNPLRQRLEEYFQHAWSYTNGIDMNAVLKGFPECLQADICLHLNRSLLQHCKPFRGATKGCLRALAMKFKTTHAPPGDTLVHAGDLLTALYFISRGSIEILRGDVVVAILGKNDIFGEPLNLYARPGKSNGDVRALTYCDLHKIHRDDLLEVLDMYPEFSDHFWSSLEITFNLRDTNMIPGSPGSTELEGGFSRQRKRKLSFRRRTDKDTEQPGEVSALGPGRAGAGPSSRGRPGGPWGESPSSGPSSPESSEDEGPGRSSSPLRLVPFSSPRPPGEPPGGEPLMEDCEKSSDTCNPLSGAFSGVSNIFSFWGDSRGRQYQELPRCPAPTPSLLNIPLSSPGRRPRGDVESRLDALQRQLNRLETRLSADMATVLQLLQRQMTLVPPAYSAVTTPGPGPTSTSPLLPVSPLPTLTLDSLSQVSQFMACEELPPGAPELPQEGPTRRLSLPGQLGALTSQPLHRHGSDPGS
Description: Displacement of [3H]dofetilide from human ERG expressed in HEK293 cells

Chain of hERG (KCNH2) (Q12809 whole entry): as above

SMILES | Stability (Liver microsomes) [µL/min] | logD (physchem [3]) | IC90 [4] [nM] | other results
Cc1nnc(C(C)C)n1C1CCN(CC[C@H](NC(=O)C2CCC(F)(F)CC2)c2ccccc2)CC1 | < 8 | 1.7 |  | Activity [1]: inactive; inhibition at 0.3 µM (hERG (KCNH2)): 0%; pKa (physchem [2]): 7.2
CC(C[C@H](NC(=O)C1CCC1)c1ccccc1)N1CCC(c2nnc(CN(C)C)o2)CC1 (some centres undefined) | < 7 | 1.1 |  | 
CCN(C(=O)NCc1ccc(Cl)c(Cl)c1)C1CCN(C(C)C[C@H](NC(=O)C2CCC2)c2ccccc2)CC1 (some centres undefined) |  |  | 0.236 | 
CCN(C(=O)Cc1ccc(OC)cc1)[C@H]1C[C@H]2CC[C@@H](C1)N2CC[C@H](NC(=O)C1CCC1)c1ccccc1 | 183 | 2.9 |  | pKa (physchem [2]): 8.7
CCN(C(=O)c1ccc(F)cc1)C1CCN(C(C)C[C@H](NC(=O)C2CCC2)c2ccccc2)CC1 (some centres undefined) |  |  | 1630 | 
CCN(C(=O)OCc1ccccc1)C1CCN(C(C)C[C@H](NC(=O)C2CCC2)c2ccccc2)CC1 (some centres undefined) |  |  | 0.322 | 
Cc1nnc(C(C)C)n1[C@H]1C[C@H]2CC[C@@H](C1)N2CC[C@H](NC(=O)C1CCC(F)(F)CC1)c1ccccc1 [MARAVIROC] | 22 | 2 | 0.7 | pKa (physchem [2]): 7.7
CC(C)c1noc(C2CCN(C(C)C[C@H](NC(=O)C3CCC3)c3ccccc3)CC2)n1 (some centres undefined) | 204 | 3.2 |  | 
Cc1noc(C2CCN(C(C)C[C@H](NC(=O)C3CCC3)c3ccccc3)CC2)n1 (some centres undefined) | 56 | 2.1 |  | 
Cc1nnc(C)n1C1CCN(C(C)C[C@H](NC(=O)C2CCC2)c2ccccc2)CC1 (some centres undefined) | < 7 | 1.2 |  | 
CC(C[C@H](NC(=O)C1CCC1)c1ccccc1)N1CCC(n2cc(-c3ccccc3)[nH]c2=O)CC1 (some centres undefined) | 35 | 3.5 |  | IC50 [5]: 4.7 nM
Cc1nnc(C(C)C)n1C1CCN(C(C)C[C@H](NC(=O)C2CCC2)c2ccccc2)CC1 (some centres undefined) | < 7 | 1.9 |  | 
CC(C[C@H](NC(=O)C1CCC1)c1ccccc1)N1CCC(c2[nH]ncc2-c2ccncc2)CC1 (some centres undefined) | 38 | 2.4 |  | IC50 [5]: 117 nM
CCN(C(=O)Oc1ccc(F)cc1)C1CCN(C(C)C[C@H](NC(=O)C2CCC2)c2ccccc2)CC1 (some centres undefined) |  |  | 61.4 | 
Cc1nnc(C2CCN(C(C)C[C@H](NC(=O)C3CCC3)c3ccccc3)CC2)o1 (some centres undefined) | < 7 | 1.3 |  | 
